Reference: paper PMC4928982 (Science Advances, 2016)
Residues, ends and D or L forms follow the SMILES beside them.

Columns and labels:
[1] = tested on: human first-trimester placental explants (CTB)
[2] = tested on: human placental explants (syncytiotrophoblast); experiment: Peptide-binding assay with human placental explants; format: cell-based; details: peptide 20 μM, 0 to 3 hours
[3] = tested on: mouse placenta (maternofetal interface); format: in vivo, BALB/c mice; details: 200 μg, tail vein, cardiac perfusion

Cys-Arg-Gly-Asp-Lys-Gly-Pro-Asp-Cys (disulfide) [iRGD]
basal rates of CTB proliferation (Ki67) [1]: did not alter | rate of CTB apoptosis (M30) [1]: modestly reduced

FAM-ARALPSQRSR [reference compound]
binding to human placenta (first-trimester and term explants) [2]: did not bind to the syncytium of human placenta or to other cellular components | binding at the murine maternofetal interface ([3]; pregnant mice E11.5 to E17.5, 3 hours, fluorescence microscopy, n = 3 placentas from n = 4 mice): did not target the maternofetal interface

N=C(N)NCCC[C@H](NC(=O)[C@H](CCCCN)NC(=O)CNC(=O)[C@H](CS)NC(=O)c1ccc2c(c1)C(=O)OC21c2ccc(O)cc2Oc2cc(O)ccc21)C(=O)N[C@@H](CCCCN)C(=O)O [FAM-CGKRK] (HELM PEPTIDE1{[O=C1OC2(c3ccc(O)cc3Oc3cc(O)ccc32)c2ccc(C(=O)[*:2])cc21].C.G.K.R.K}$$$$V2.0)
accumulation in maternal organs ([3]; pregnant mice, 3 hours, confocal microscopy (fig. S1)): do not accumulate in maternal organs of pregnant mice

Cys-Gly-Lys-Arg-Lys [CGKRK]
basal rates of CTB proliferation (Ki67) [1]: did not alter
